Assay results: US10550097B2, “Selective 11-beta-hydroxysteroid dehydrogenase type 1 inhibitors” (DSM IP ASSETS B.V., priority 2015, dated 2020)

How the values were obtained:
[1] = system: Human skin from abdominal plastic surgery; test: Ex vivo: total dermal collagen after cortisone and cortisone/inhibitor treatment; type: cell-based; conditions: day 6; for Dermal collagen: cortisone/inhibitor treatment, topical daily, untreated set to 100%
Procedure: Human skin from abdominal plastic surgery was used. The skin samples were cut in pieces of ˜8×3 mm (ø×thickness) and cultured up to day 6 in an air-liquid interface in a perforated ring of stainless steel in contact with a culture medium (modified Williams' E medium), while renewing the culture medium on day 3. Six skin specimens were used for each test sample. Each test sample (4 μl) was applied topically on top of each piece after cleaning of the surface with a cotton pad, which was subsequently covered with a 6 ø mm delivery membrane, this procedure was repeated daily. After 6 days skin sections were stained with Picrosirius Red histochemical staining, that dyes collagen fibers in purple-red. The papillary dermis was selected for the analysis. The different colors of the pictures were separated by using a deconvolution matrix. After deconvolution only pink-reddish images are used. Within these images the evaluation of dermal collagen was performed by estimating both color intensity and distribution with IMAGE J (NIH) analysis software. Two slides of each skin sample were processed by image acquisition and related analysis (i.e. 12 images for each treatment).

[2] = biological target: 11β-HSD1 (Homo sapiens, UniProt P28845); test: 11β-HSD1 enzyme activity assay in cell lysates of transfected HEK-293 cells (HHH7 clone); type: biochemical; design: expressed in transfected cells; host or cells: HEK-293 (HHH7 clone), used as cell lysate; conditions: inhibitor 100 nM, 200 nM cortisone, 450 μM NADPH, 10 min
Procedure: Stably transfected human embryonic kidney (HEK-293) cells expressing 11β-HSD1 and hexose-6-phosphate dehydrogenase (the so called HHH7 clone) were cultivated for 48 h in Dulbecco's modified Eagle medium (DMEM) containing 4.5 g/L glucose, 10% fetal bovine serum, 100 U/mL penicillin, 0.1 mg/mL streptomycin, 1×MEM nonessential amino acids, and 10 mM HEPES buffer, pH 7.4. The cells were then washed with phosphate-buffered saline, and centrifuged for 4 min at 150×g. After removal of the supernatants, cell pellets were snap frozen on dry ice and stored at −80° C. until further use.
Cell lysates were incubated for 10 min at 37° C. in TS2 buffer (100 mM NaCl, 1 mM EGTA, 1 mM EDTA, 1 mM MgCl2, 250 mM sucrose, 20 mM Tris-HCl, pH 7.4) in a final volume of 22.2 μL containing either solvent (0.1% DMSO) or the inhibitor at the respective concentration as indicated in Table 4 (see below).
The steroids were separated by TLC, using methanol-chloroform (1:9) as solvent, followed by scintillation counting and calculation of substrate concentration. Data were collected from four independent measurements (standard deviation<10%).

Sequence of 11β-HSD1 (P28845 whole entry): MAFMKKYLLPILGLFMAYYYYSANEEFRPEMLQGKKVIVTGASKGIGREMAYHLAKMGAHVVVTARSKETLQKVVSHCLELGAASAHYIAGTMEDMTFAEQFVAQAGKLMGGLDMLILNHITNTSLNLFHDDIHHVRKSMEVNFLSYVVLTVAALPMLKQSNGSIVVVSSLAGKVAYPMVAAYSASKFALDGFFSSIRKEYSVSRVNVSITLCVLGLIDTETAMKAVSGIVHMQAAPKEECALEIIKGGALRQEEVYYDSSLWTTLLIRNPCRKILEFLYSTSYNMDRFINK

11β-HSD1 Remaining activity [% of control] [2]: 31 % of control
Structure (SMILES): Cc1ccc(-c2cccc(C(=O)N3CCCCCC3)c2)cn1 [IV-e, azepan-1-yl(3-(6-methylpyridin-3-yl)phenyl)methanone]
Dermal collagen ([1]; 10 μM in DMSO): 103%
Increase versus cortisone (#2) ([1]; 10 μM in DMSO): +34%
Dermal collagen ([1]; 100 μM in DMSO): 101%
Increase versus cortisone (#2) ([1]; 100 μM in DMSO): +31%
Dermal collagen ([1]; 200 μM in DMSO): 96%
Increase versus cortisone (#2) ([1]; 200 μM in DMSO): +25%
